A short description of experiment [1]: Inhibition of human ClpP expressed in Escherichia coli SG1146 cells/His6-tagged TEV-fused human ClpX expressed in Escherichia coli B21 Gold DE3 cells complex formation using FITC-casein as substrate incubated for 60 mins and measured at 20 secs time interval for 90 mins by fluorescence assay.
The target of experiment [2] is ATP-dependent Clp protease proteolytic subunit, mitochondrial (Homo sapiens, UniProt Q16740). Description: Inhibition of human ClpP expressed in Escherichia coli SG1146 cells using N-acetyl-Trp-Leu-Ala-AMC as substrate incubated for 1 hr and measured at 20 secs time interval for 90 mins by fluorescence assay.
Chain of ATP-dependent Clp protease proteolytic subunit, mitochondrial (Q16740 whole entry): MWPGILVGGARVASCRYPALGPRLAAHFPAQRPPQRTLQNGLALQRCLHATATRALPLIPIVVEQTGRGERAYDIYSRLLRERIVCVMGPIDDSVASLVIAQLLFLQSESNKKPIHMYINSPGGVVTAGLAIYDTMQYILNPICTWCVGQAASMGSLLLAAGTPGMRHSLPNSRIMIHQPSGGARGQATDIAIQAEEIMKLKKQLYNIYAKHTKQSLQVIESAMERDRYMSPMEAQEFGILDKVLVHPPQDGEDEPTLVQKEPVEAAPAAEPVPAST

Regarding `CC(C)C[C@H](NC(=O)[C@H](CC(C)C)NC(=O)c1ccc(F)c([N+](=O)[O-])c1)B(O)O`, in experiment [1], the half-inhibitory concentration (IC50) was determined as 1000 nM.
As for `COc1ccc(C(=O)NC(CC(C)C)C(=O)NC(Cc2ccccc2)B(O)O)c(Cl)c1` (stereo unspecified), the IC50 result in experiment [2] was “Not Active”; in experiment [2] (read-out: IC50) it was 118 µM.
For the molecule `CC(C)C[C@H](NC(=O)[C@H](CC(C)C)NC(=O)c1ccccc1-c1ccccc1)B(O)O`, it took 900 nM to reach half-maximal inhibition in experiment [1] (IC50).
Still for that read-out and setting: the result for `COc1ccc(C(=O)N[C@@H](CC(C)C)C(=O)N[C@@H](CC(C)C)B(O)O)c(Cl)c1` reads 800 nM.
Turning to `CC(C)CC(NC(=O)C(CC(C)C)NC(=O)C1(c2ccccc2)CC1)B(O)O` (stereo unspecified), the half-inhibitory concentration (IC50) entry in experiment [2] is recorded as “Not Active”.

The IC50 is the concentration at which inhibition is half-maximal.

These data come from ChEMBL document CHEMBL4304762, “De Novo Design of Boron-Based Peptidomimetics as Potent Inhibitors of Human ClpP in the Presence of Human ClpX” (J Med Chem, 2019).
